Assay results as given in the supplement of paper PMC10307832.

Assays:
Test in all cases: relative viability (nuclei count vs DMSO), 5 days (fraction); higher = more cells survive
[1] = compound: CC1=CN=C(N=C1C2=CNC(=C2)C(=O)N[C@H](CO)C3=CC(=CC=C3)Cl)NC4=C(C=C(C=C4)F)Cl [VX-11e] + CCNC(=O)c1noc(-c2cc(C(C)C)c(O)cc2O)c1-c1ccc(CN2CCOCC2)cc1 [Luminespib] (partner 0.01 µM)
How it was run: (§1)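 Lung cancer cell lines were pin-tool dosed in 1536-well plates on the day after seeding, with either a lone drug or a fixed anchor-drug dose plus five library-drug doses (not always all listed) in √10 steps. Nuclei were counted on 4× images after 5 days. Relative viability is the ratio of treated-well to vehicle-well nuclei counts, with each value a median of duplicate plates.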

[2] = compound: CC1=CN=C(N=C1C2=CNC(=C2)C(=O)N[C@H](CO)C3=CC(=CC=C3)Cl)NC4=C(C=C(C=C4)F)Cl [VX-11e] + CC(C)C[C@H](NC(=O)[C@H](Cc1ccccc1)NC(=O)c1cnccn1)B(O)O [Bortezomib] (partner 0.002 µM)
How it was run: as §1

[3] = compound: CC1=CN=C(N=C1C2=CNC(=C2)C(=O)N[C@H](CO)C3=CC(=CC=C3)Cl)NC4=C(C=C(C=C4)F)Cl [VX-11e] + CC(=O)c1c(C)c2cnc(Nc3ccc(N4CCNCC4)cn3)nc2n(C2CCCC2)c1=O [Palbociclib] (partner 0.5 µM)
How it was run: as §1

[4] = compound: CC1=CN=C(N=C1C2=CNC(=C2)C(=O)N[C@H](CO)C3=CC(=CC=C3)Cl)NC4=C(C=C(C=C4)F)Cl [VX-11e] + Cc1nc(Nc2ncc(C(=O)Nc3c(C)cccc3Cl)s2)cc(N2CCN(CCO)CC2)n1 [Dasatinib] (partner 0.075 µM)
How it was run: as §1

| Cell Line | relative viability ([1]; first compound 0.04 µM) | relative viability ([1]; first compound 0.1265 µM) | relative viability ([1]; first compound 0.4 µM) | relative viability ([1]; first compound 1.265 µM) | relative viability ([1]; first compound 4 µM) | relative viability ([2]; first compound 0.04 µM) | relative viability ([2]; first compound 0.1265 µM) | relative viability ([2]; first compound 0.4 µM) | relative viability ([2]; first compound 1.265 µM) | relative viability ([2]; first compound 4 µM) | relative viability ([3]; first compound 0.04 µM) | relative viability ([3]; first compound 0.1265 µM) | relative viability ([3]; first compound 0.4 µM) | relative viability ([3]; first compound 1.265 µM) | relative viability ([3]; first compound 4 µM) | relative viability ([4]; first compound 0.04 µM) | relative viability ([4]; first compound 0.1265 µM) | relative viability ([4]; first compound 0.4 µM) | relative viability ([4]; first compound 1.265 µM) | relative viability ([4]; first compound 4 µM) |
| --- | --- | --- | --- | --- | --- | --- | --- | --- | --- | --- | --- | --- | --- | --- | --- | --- | --- | --- | --- | --- |
| PC-3 [JPC-3] | 0.627 | 0.595 | 0.66 | 0.744 | 0.591 | 0.91 | 0.828 | 0.803 | 0.993 | 0.719 | 0.565 | 0.558 | 0.519 | 0.624 | 0.546 | 0.904 | 0.903 | 0.886 | 1.16 | 0.883 |
| NCI-H2023 | 0.683 | 0.791 | 0.701 | 0.6 | 0.361 | 0.993 | 1.03 | 0.098 | 0.394 | 0.418 | 0.336 | 0.338 | 0.251 | 0.203 | 0.111 | 0.647 | 0.508 | 0.502 | 0.439 | 0.234 |
| CAL-12T | 0.392 | 0.434 | 0.462 | 0.433 | 0.276 | – | – | 0.91 | 0.715 | 0.509 | 0.391 | 0.433 | 0.331 | 0.141 | 0.116 | 0.466 | 0.34 | 0.249 | 0.243 | 0.111 |
| 201T | 1.06 | 1.06 | 1.09 | 1.05 | 0.918 | 1.05 | 1.11 | 1.12 | 1.02 | 1.03 | 0.206 | 0.337 | 0.361 | 0.353 | 0.348 | 0.58 | 0.536 | 0.486 | 0.502 | 0.495 |
| NCI-H1651 | 0.977 | 0.847 | 0.784 | 0.796 | 0.672 | 0.946 | 0.879 | 0.921 | 0.922 | 0.871 | 0.526 | 0.493 | 0.492 | 0.449 | 0.498 | 0.43 | 0.378 | 0.368 | 0.328 | 0.323 |
| LU99A | 0.3 | 0.249 | 0.209 | 0.336 | 0.172 | 0.965 | 0.984 | 0.769 | 0.284 | 0.239 | 0.334 | 0.373 | 0.443 | 0.326 | 0.228 | 0.505 | 0.562 | 0.261 | 0.252 | 0.199 |
| LC-2-ad | 1.18 | 0.947 | 0.633 | 0.883 | 0.815 | 1.13 | 0.962 | 0.894 | 0.403 | 0.841 | 0.48 | 0.42 | 0.54 | 0.46 | 0.409 | 0.48 | 0.402 | 0.326 | 0.289 | 0.324 |
| NCI-H1975 | 0.232 | 0.199 | 0.156 | 0.283 | 0.186 | 0.475 | 0.372 | 0.301 | 0.281 | 0.178 | 0.543 | 0.411 | 0.169 | 0.391 | 0.17 | 0.373 | 0.29 | 0.195 | 0.254 | 0.171 |
| NCI-H460 | 0.0317 | 0.0379 | 0.0305 | 0.0413 | 0.0238 | 1.15 | 0.986 | 0.91 | 0.648 | 0.102 | 0.198 | 0.195 | 0.146 | 0.0404 | 0.0179 | 0.476 | 0.515 | 0.23 | 0.266 | 0.0901 |
| NCI-H1666 | 1.02 | 0.92 | 0.941 | 0.829 | 0.642 | 0.877 | 0.862 | 0.627 | 0.678 | 0.505 | 0.616 | 0.632 | – | 0.68 | 0.72 | 0.855 | 0.87 | 0.69 | 0.688 | 0.477 |
| EKVX | 0.714 | 0.894 | 0.723 | 0.85 | 0.52 | 1.06 | 0.977 | 0.951 | 1 | 0.406 | 0.397 | 0.378 | 0.452 | 0.368 | 0.19 | 0.687 | 0.482 | 0.401 | 0.489 | 0.247 |
| NCI-H1355 | 0.681 | 0.683 | 0.552 | 0.638 | 0.47 | 1.01 | 1.17 | 0.614 | 1.11 | 0.763 | 0.432 | 0.382 | 0.382 | 0.319 | 0.216 | 0.523 | 0.669 | 0.334 | 0.43 | 0.321 |
| SK-LU-1 | 0.179 | 0.196 | – | 0.199 | 0.177 | 1.01 | 0.718 | – | 0.895 | 0.452 | 0.399 | 0.355 | 0.325 | 0.365 | 0.236 | 0.202 | 0.184 | – | 0.147 | 0.108 |
| NCI-H727 | 0.293 | 0.294 | 0.291 | 0.312 | 0.371 | 0.686 | 0.68 | 0.519 | 0.513 | 0.29 | 0.589 | 0.358 | 0.602 | 0.559 | 0.412 | 0.355 | 0.279 | 0.337 | 0.415 | 0.258 |
| NCI-H2126 | 0.824 | 0.877 | – | 0.964 | 0.737 | – | 1.06 | 1.01 | 1.14 | 1.02 | 0.331 | 0.379 | 0.359 | 0.353 | 0.318 | 0.52 | 0.635 | – | 0.597 | 0.401 |
| PC-14 | 0.199 | 0.173 | – | 0.112 | 0.172 | 0.967 | 0.798 | 0.818 | 0.869 | 0.527 | 0.551 | 0.497 | 0.374 | 0.252 | 0.19 | 0.359 | 0.237 | 0.168 | 0.319 | 0.109 |
| NCI-H1915 | 0.821 | 0.737 | 0.851 | 0.773 | 0.59 | 1.02 | 0.923 | 1.03 | 0.939 | 0.757 | 0.546 | 0.465 | 0.481 | 0.433 | 0.217 | 0.288 | 0.291 | 0.25 | 0.267 | 0.217 |
| ChaGo-K-1 | 0.633 | 0.646 | 0.561 | 0.688 | 0.507 | 1.01 | – | 1.11 | 0.759 | 0.772 | 0.982 | 0.821 | 0.915 | 0.947 | 0.845 | 0.516 | 0.587 | 0.584 | 0.654 | 0.557 |
| NCI-H1437 | 1.19 | 1.09 | 0.996 | 1.17 | 0.736 | 0.597 | 0.316 | 0.306 | 0.312 | 0.202 | 0.323 | 0.24 | 0.321 | 0.224 | 0.222 | 0.292 | 0.329 | 0.161 | 0.218 | 0.16 |
| NCI-H650 | 0.749 | 0.8 | 0.606 | 0.772 | 0.677 | – | 0.692 | 1.23 | – | 0.87 | 0.358 | 0.487 | 0.519 | 0.329 | 0.491 | 0.418 | 0.467 | 0.425 | 0.414 | 0.398 |
| NCI-H322M | 0.846 | 0.687 | 0.303 | 0.658 | 0.606 | 1.08 | – | 1.24 | 1.09 | 0.987 | 0.45 | 0.417 | 0.539 | 0.453 | 0.462 | 0.224 | 0.208 | 0.27 | 0.252 | 0.225 |
| LOU-NH91 | 0.394 | 0.396 | 0.283 | 0.341 | 0.312 | 0.494 | 0.502 | – | 0.486 | 0.457 | 0.533 | 0.509 | – | 0.487 | 0.521 | 0.534 | 0.514 | 0.372 | 0.489 | 0.471 |
| EPLC-272H | 0.173 | 0.302 | – | 0.293 | 0.148 | 0.94 | 0.799 | 0.841 | 0.839 | 0.665 | 0.339 | 0.293 | – | 0.295 | 0.235 | 0.328 | 0.269 | – | 0.334 | 0.2 |
| NCI-H2009 | 1.07 | 1.03 | 1.03 | 1.08 | 0.349 | 1.08 | 0.944 | 0.797 | 0.254 | 0.201 | 0.177 | 0.171 | 0.187 | 0.158 | 0.0988 | 0.307 | 0.286 | 0.242 | 0.169 | 0.122 |
| BEN | – | 0.241 | 0.475 | 0.376 | 0.264 | 0.543 | 0.779 | 0.942 | 0.533 | 0.725 | 0.46 | 0.401 | 0.465 | 0.47 | 0.431 | – | 0.277 | 0.399 | 0.236 | 0.252 |
| NCI-H1734 | 0.203 | 0.21 | 0.269 | 0.205 | 0.163 | 0.965 | 0.826 | 0.726 | 0.513 | 0.365 | 0.342 | 0.382 | 0.355 | 0.327 | 0.224 | 0.418 | 0.396 | 0.536 | 0.415 | 0.256 |
| NCI-H3122 | 0.0662 | 0.0869 | – | 0.0911 | 0.0987 | 1.11 | 1.03 | 0.743 | 0.832 | 0.676 | 0.211 | 0.164 | 0.168 | 0.166 | 0.135 | 0.7 | 0.637 | – | 0.476 | 0.224 |
| NCI-H661 | 0.981 | 0.913 | 0.937 | 0.907 | 0.603 | 0.791 | 0.899 | 0.819 | 0.683 | 0.583 | 0.375 | 0.406 | 0.348 | 0.402 | 0.379 | 0.863 | 0.799 | 0.784 | 0.684 | 0.352 |
